This note sets out measurements from patent US12226380B2, “Method of regulating immunity in the intestines” (Monell Chemical Senses Center, priority 2016, dated 2025).

The subject of assay [1] is N. brasiliensis or Helgomosomoides polygyrus. The settings on record: mice with free access to 100 mM succinate, infected with intestinal parasites, up to two weeks post-infection; anticipated. The method, then: For treatment of parasitic infection, mice are provided with free access to a drinking sprout containing 100 mM succinate (or other SucnR1 agonist) or plain water. Mice are then infected with intestinal parasites, such as N. brasiliensis or Helgomosomoides polygyrus. Mice are examined for the presence of worm (worm burden) in the small intestine, caecum, as well as feces for up to two weeks post-infection.
Similarly, the feces is examined for the presence of parasitic eggs.

A further assay relates to DSS-induced colitis. To be noted: DSS-treated mice, 100 mM succinate in drinking water vs plain water; anticipated. On the procedure: Mice are treated with DSS to induce intestinal damage. Mice are then provided with a drinking sprout containing 100 mM succinate or plain water. Gut tissue is collected and evaluated for the clinical and histological changes.

With `O=C(O)CCC(=O)O` [succinate], the “expelling of helminths (worm burden)” value in assay [1] was “expedited expelling of helminths from the body”. In addition, the “clinical outcome (clinical and histological changes of gut tissue)” value in the assay on DSS-induced colitis is listed as “better clinical outcome”.
